In publication PMC8533211, “Computationally Assisted Lead Optimization of Novel Potent and Selective MAO-B Inhibitors” (Biomedicines, 2021):
Where two headings read alike, the source gives them in different places.

What was measured:
human recombinant MAO-B = target: T1, human recombinant MAO-B (Homo sapiens, UniProt P27338); test: kynuramine oxidation deamination assay, MAO-B inhibition (IC50); format: biochemical; set-up: purchased BD Biosciences (Bedford, MA, USA); conditions: for IC50: recombinant human MAO-B, kynuramine 50 μM, mean ± S.D. of triplicate; for Selectivity Index MAO-A/B: ratio of IC50 MAO-A / MAO-B
T1 sequence (P27338 1-520): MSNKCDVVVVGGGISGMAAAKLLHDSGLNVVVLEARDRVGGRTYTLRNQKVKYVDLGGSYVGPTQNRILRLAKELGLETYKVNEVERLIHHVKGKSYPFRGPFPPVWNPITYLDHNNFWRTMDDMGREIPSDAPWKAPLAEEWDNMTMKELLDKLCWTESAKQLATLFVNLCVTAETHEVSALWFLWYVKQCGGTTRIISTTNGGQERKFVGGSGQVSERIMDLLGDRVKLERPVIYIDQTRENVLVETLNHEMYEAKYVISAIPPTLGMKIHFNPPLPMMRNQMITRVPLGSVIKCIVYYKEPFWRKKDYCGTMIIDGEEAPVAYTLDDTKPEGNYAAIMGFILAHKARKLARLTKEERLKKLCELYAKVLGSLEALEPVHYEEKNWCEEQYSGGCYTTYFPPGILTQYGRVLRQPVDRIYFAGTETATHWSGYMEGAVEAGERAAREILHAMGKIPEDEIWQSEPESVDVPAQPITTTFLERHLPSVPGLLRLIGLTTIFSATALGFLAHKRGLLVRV
Procedure: A fixed single concentration of kynuramine substrate and varying concentrations of the test inhibitor were used to determine the IC50 values. […] These concentrations of kynuramine were twice the apparent KM value for substrate binding. […] Enzymatic reactions were performed in 50 μL of the assay mixture containing 0.1 M potassium phosphate buffer, pH 7.4. […] Reactions were initiated by the addition of 12.50 μL of MAO-A (to 5 μg/mL) or -B (to 10 μg/mL). The plate was incubated for 20 min at 37 °C, and the enzymatic reaction was terminated by the addition of 18.8 μL of 2N NaOH. Formation of the enzyme product, 4-hydroxyquinoline, was measured fluorometrically using a SpectraMax M5 fluorescence plate reader (Molecular Devices, Sunnyvale, CA, USA) with excitation (320 nm) and emission (380 nm) wavelengths and the Soft Max Pro program. The inhibition effects of enzyme activity were calculated as percent of product formation compared to the corresponding control (enzyme–substrate reaction) without inhibitors. Controls included the assays where the enzyme or the substrate was added after terminating the reaction to determine the interference with the fluorescence measurements. The IC50 values for MAO-A and -B inhibition were calculated from the concentration-dependent inhibition curves using XLFit® software.

human recombinant MAO-A = target: T2, human recombinant MAO-A (Homo sapiens, UniProt P21397); test: kynuramine oxidation deamination assay, MAO-A inhibition (IC50); format: biochemical; conditions: kynuramine 80 μM, mean ± S.D. of triplicate
T2 construct: purchased BD Biosciences (Bedford, MA, USA)
T2 sequence (P21397 1-527): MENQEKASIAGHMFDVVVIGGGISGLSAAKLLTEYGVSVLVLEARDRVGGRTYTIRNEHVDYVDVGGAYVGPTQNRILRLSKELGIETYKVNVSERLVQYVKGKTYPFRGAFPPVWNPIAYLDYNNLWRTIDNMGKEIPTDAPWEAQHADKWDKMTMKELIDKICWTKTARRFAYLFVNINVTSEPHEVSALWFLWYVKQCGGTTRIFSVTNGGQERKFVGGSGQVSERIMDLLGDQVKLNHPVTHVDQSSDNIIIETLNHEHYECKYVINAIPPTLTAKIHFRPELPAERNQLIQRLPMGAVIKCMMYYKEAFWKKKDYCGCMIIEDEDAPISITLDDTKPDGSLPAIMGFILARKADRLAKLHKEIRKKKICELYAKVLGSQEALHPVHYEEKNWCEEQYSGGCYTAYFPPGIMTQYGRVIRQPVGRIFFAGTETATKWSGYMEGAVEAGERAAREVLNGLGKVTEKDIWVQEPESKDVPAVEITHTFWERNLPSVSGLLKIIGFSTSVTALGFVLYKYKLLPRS
Procedure: A fixed single concentration of kynuramine substrate and varying concentrations of the test inhibitor were used to determine the IC50 values. The kynuramine concentrations for MAO-A and -B were 80 μM and 50 μM, respectively. These concentrations of kynuramine were twice the apparent KM value for substrate binding. […] Enzymatic reactions were performed in 50 μL of the assay mixture containing 0.1 M potassium phosphate buffer, pH 7.4. […] Reactions were initiated by the addition of 12.50 μL of MAO-A (to 5 μg/mL) or -B (to 10 μg/mL). The plate was incubated for 20 min at 37 °C, and the enzymatic reaction was terminated by the addition of 18.8 μL of 2N NaOH. Formation of the enzyme product, 4-hydroxyquinoline, was measured fluorometrically using a SpectraMax M5 fluorescence plate reader (Molecular Devices, Sunnyvale, CA, USA) with excitation (320 nm) and emission (380 nm) wavelengths and the Soft Max Pro program. The inhibition effects of enzyme activity were calculated as percent of product formation compared to the corresponding control (enzyme–substrate reaction) without inhibitors. Controls included the assays where the enzyme or the substrate was added after terminating the reaction to determine the interference with the fluorescence measurements. The IC50 values for MAO-A and -B inhibition were calculated from the concentration-dependent inhibition curves using XLFit® software.

human recombinant MAO A = conditions: cited from earlier work
human recombinant MAO B = conditions: cited from earlier work

Row | SMILES | IC50 (human recombinant MAO-B) [µM] | IC50 (human recombinant MAO-A) [µM] | Selectivity Index MAO-A/B (human recombinant MAO-B) | further results
1 | COc1ccc2c(c1)[nH]c1c(C)nccc12 [Harmine, reference compound] | 39 ± 1.41 | – | – | –
2 | CCCOc1ccc(/C=C/C(=O)c2c(O)cc(OC)cc2OC)cc1 [Compound 1a, (E)-1-(2-Hydroxy-4,6-dimethoxyphenyl)-3-(4-propoxyphenyl)prop-2-en-1-one] | 0.4 ± 0.024 | 0.515 ± 0.024 | 1.3 | –
3 | COc1cc(O)c2c(=O)cc(-c3ccc(O)c(OC)c3)oc2c1 [Vetulin] | – | – | – | IC50 (human recombinant MAO A; human recombinant, kynuramine): 18.8 ± 0.29 µM; Selectivity Index MAO-A/B (human recombinant MAO B): 42.70; IC50 (human recombinant MAO B; human recombinant, kynuramine): 0.44 ± 0.01 µM
4 | COc1cc(OC)c2c(=O)cc(-c3ccc(OCC4CC4)cc3)oc2c1 [Compound 5b, 2-(4-(Cyclopropylmethoxy)phenyl)-5,7-dimethoxy-4H-chromen-4-one] | 22.8 ± 2.1 | > 100 | >4.4 | –
5 | COc1cc(OC)c2c(=O)cc(-c3ccc(Br)cc3)oc2c1 [Compound 6b, 2-(4-Bromophenyl)-5,7-dimethoxy-4H-chromen-4-one] | 28.4 ± 2.64 | 87.8 ± 5.45 | 3.1 | –
6 | COc1cc(O)c(C(=O)/C=C/c2ccc(OCC3CC3)cc2)c(OC)c1 [Compound 5a, (E)-3-(4-(Cyclopropylmethoxy)phenyl)-1-(2-hydroxy-4,6-dimethoxyphenyl)prop-2-en-1-one] | 0.9 ± 0.035 | 1.3 ± 0.09 | 1.4 | –
7 | CCCNc1ccc(-c2cc(=O)c3c(OC)cc(OC)cc3o2)cc1 [Compound 6c, 5,7-Dimethoxy-2-(4-(propylamino)phenyl)-4H-chromen-4-one] | 22.1 ± 2.48 | > 100 | >4.5 | –
8 | COc1cc(O)c2c(=O)cc(-c3ccc(NC(C)C)cc3)oc2c1 [Compound 7d, 5-Hydroxy-2-(4-(Isopropylamino)phenyl)-7-methoxy-4H-chromen-4-one] | 0.417 ± 0.012 | 40.5 ± 2.37 | 97.1 | –
9 | COc1cc(O)c(C(=O)/C=C/c2ccc(Br)cc2)c(OC)c1 [Compound 6a, (E)-3-(4-Bromophenyl)-1-(2-hydroxy-4,6-dimethoxyphenyl)prop-2-en-1-one] | > 100 | 12.3 ± 0.249 | – | –
10 | COc1ccc(-c2oc3cc(O)cc(O)c3c(=O)c2O)cc1 [4′-O-Methyl kaempferol] | – | – | – | IC50 (human recombinant MAO A; human recombinant, kynuramine): 1.35 ± 0.198 µM; IC50 (human recombinant MAO B; human recombinant, kynuramine): > 100 µM
11 | COc1cc(-c2oc3cc(O)cc(O)c3c(=O)c2O)ccc1O [Isorhamnetin] | – | – | – | IC50 (human recombinant MAO A; human recombinant, kynuramine): 6.42 ± 7.69 µM; Selectivity Index MAO-A/B (human recombinant MAO B): 0.30; IC50 (human recombinant MAO B; human recombinant, kynuramine): 21.2 ± 4.99 µM
12 | COc1cc(OC)c2c(=O)cc(-c3ccc(NC(C)C)cc3)oc2c1 [Compound 7c, 2-(4-(Isopropylamino)phenyl)-5,7-dimethoxy-4H-chromen-4-one] | 9.45 ± 0.113 | 37.5 ± 0.476 | 4.0 | –
13 | C#CCOc1ccc(-c2cc(=O)c3c(OC)cc(OC)cc3o2)cc1 [Compound 4b, 5,7-Dimethoxy-2-(4-(prop-2-yn-1-yloxy)phenyl)-4H-chromen-4-one] | > 100 | > 100 | >1 | –
14 | O=c1c(O)c(-c2ccc(O)c(O)c2)oc2cc(O)cc(O)c12 [Quercetin] | – | – | – | IC50 (human recombinant MAO A): 1.52 ± 0.09 µM; Selectivity Index MAO-A/B (human recombinant MAO B): 0.05; IC50 (human recombinant MAO B; human recombinant, kynuramine): 28.4 ± 5.41 µM
15 | COc1ccc(-c2cc(=O)c3c(O)cc(O)cc3o2)cc1O [Diosmetin] | – | – | – | IC50 (human recombinant MAO A; human recombinant, kynuramine): 5.74 ± 0.57 µM; Selectivity Index MAO-A/B (human recombinant MAO B): 3.63; IC50 (human recombinant MAO B; human recombinant, kynuramine): 1.58 ± 0.88 µM
16 | CCCNc1ccc(-c2cc(=O)c3c(O)cc(OC)cc3o2)cc1 [Compound 6d, 5-Hydroxy-7-methoxy-2-(4-(propylamino)phenyl)-4H-chromen-4-one] | 1.55 ± 0.137 | 85.5 ± 1.59 | 55.0 | –
17 | O=c1cc(-c2ccc(O)cc2)oc2cc(O)cc(O)c12 [Apigenin] | – | – | – | IC50 (human recombinant MAO A; human recombinant, kynuramine): 0.64 ± 0.11 µM; IC50 (human recombinant MAO B; human recombinant, kynuramine): 1.12 ± 0.27 µM
18 | C#CCOc1ccc(/C=C/C(=O)c2c(O)cc(OC)cc2OC)cc1 [Compound 4a, (E)-1-(2-Hydroxy-4,6-dimethoxyphenyl)-3-(4-(prop-2-yn-1-yloxy)phenyl)prop-2-en-1-one] | 8.33 ± 0.787 | 9.42 ± 1.78 | 1.1 | –
20 | COc1cc(OC)c2c(=O)cc(-c3ccc(NCC4CC4)cc3)oc2c1 [Compound 8c, 2-(4-((Cyclopropylmethyl)amino)phenyl)-5,7-dimethoxy-4H-chromen-4-one] | 12.7 ± 0.29 | 39.1 ± 5.14 | 3.1 | –
21 | COc1cc(OC)c2c(=O)cc(-c3ccc(OCC(C)C)cc3)oc2c1 [Compound 3b, 2-(4-Isobutoxyphenyl)-5,7-dimethoxy-4H-chromen-4-one] | 7.23 ± 2.14 | > 100 | >13.8 | –
22 | COc1ccc(-c2oc3cc(O)cc(O)c3c(=O)c2OC)cc1 [3,4′-Di-O-methyl kaempferol] | – | – | – | IC50 (human recombinant MAO A; human recombinant, kynuramine): 0.033 ± 0.042 µM; IC50 (human recombinant MAO B; human recombinant, kynuramine): 9.67 ± 2.39 µM
23 | COc1cc(O)c(C(=O)/C=C/c2ccc(OCC(C)C)cc2)c(OC)c1 [Compound 3a, (E)-1-(2-Hydroxy-4,6-dimethoxyphenyl)-3-(4-isobutoxyphenyl)prop-2-en-1-one] | 0.22 ± 0.0211 | 0.42 ± 0.002 | 1.9 | –
24 | C#CCN[C@@H]1CCc2ccccc21 [Rasagiline] | – | – | – | nature of MAO-B inhibition (reversible/irreversible) (human recombinant MAO B): irreversible MAO-B inhibitors; selectivity towards MAO-B against MAO-A (human recombinant MAO B): 103 fold
25 | CCCOc1ccc(-c2cc(=O)c3c(OC)cc(OC)cc3o2)cc1 [Compound 1b, 5,7-Dimethoxy-2-(4-propoxyphenyl)-4H-chromen-4-one] | 1.7 ± 0.076 | > 100 | >58.8 | –
26 | COc1cc(O)c2c(=O)cc(-c3ccc(NCC4CC4)cc3)oc2c1 [Compound 8d, 2-(4-((Cyclopropylmethyl)amino)phenyl)-5-hydroxy-7-methoxy-4H-chromen-4-one] | 2.19 ± 0.088 | 39.1 ± 0.555 | 17.9 | –
27 | COc1cc(O)c(C(=O)/C=C/c2ccc(OC(C)C)cc2)c(OC)c1 [Compound 2a, (E)-1-(2-Hydroxy-4,6-dimethoxyphenyl)-3-(4-isopropoxyphenyl)prop-2-en-1-one] | 0.049 ± 0.0035 | 0.117 ± 0.05 | 2.4 | –
28 | COc1cc(OC)c2c(=O)cc(-c3ccc(OC(C)C)cc3)oc2c1 [Compound 2b, 2-(4-Isopropoxyphenyl)-5,7-dimethoxy-4H-chromen-4-one] | 2.64 ± 0.088 | > 100 | >37.9 | –
